Source: paper PMC11087982, “In vitro and in vivo activities of a trithiolato-diRuthenium complex conjugated with sulfadoxine against the apicomplexan parasite Toxoplasma gondii” (International Journal for Parasitology: Drugs and Drug …, 2024)
Read-outs that look alike come from different tables or passages of the source.

Assays:
HFF = HFF host cell cytotoxicity, Alamar blue viability assay; assay type: cell-based, human; conditions: 72 h, uninfected HFF
Method: To determine cytotoxicity of compounds on host cells, HFF were grown to confluency in 96 well plates and were treated with different concentrations of the drugs solubilized in medium during 72 h at 37 °C/5% CO2, or were treated with the corresponding concentration of DMSO only ([Desiatkina et al., 2020]; [Holzer et al., 2023]; [Păunescu et al., 2021]). The Alamar blue viability assay was used as previously described ([Desiatkina et al., 2020], [2021], [2022a], [2022b]; [Holzer et al., 2023]; [Păunescu et al., 2021]). In short, resazurin was added to each well at 0.01 mg/ml, and subsequently fluorescence of the produced resorufin was measured at excitation wavelength 544/20 nm and emission wavelength 590/20 nm using a Hidex Sense microplate reader (Hidex, Turku, Finland).

[1] = test system: zebrafish (Danio rerio) embryo; assay: Zebrafish embryo acute toxicity test; assay type: in vivo; conditions: for Malformations (No. embryos with malformations / fertilized embryos) / Mortality (No. of dead embryos / fertilized embryos) / Unaffected embryos (No. / fertilized embryos): 96 h
Method: The zebrafish (Danio rerio) embryo acute toxicity test was carried out to assess the impact of RU-SDX on early embryo development as previously described ([Anghel et al., 2020]). RU-SDX was assessed at 0.2, 2 and 20 μM, while the bumped kinase inhibitor BKI-1748 (applied at 50 μM) was used as a positive control resulting in 100% mortality of zebrafish embryos ([Anghel et al., 2020]). For each test- and control condition, a 24 well plate containing 24 fertilized eggs (1 egg/well) was used. Negative control plates contained 1 ml of E3 medium/osmosis water, whereas eggs in solvent control plates were incubated in E3 medium containing 0.01% DMSO ([Anghel et al., 2020]). For each treatment, a survival rate was calculated that reflected the degree of either embryo death or malformations during the first 96 h of development in relation to eggs maintained without compound.

Non-infected HFF = assay: TMRE uptake assay (mitochondrial membrane potential), non-infected HFF; assay type: cell-based, human; conditions: 0.5 μM, 3.5 h
Method: 5 × 10^5 HFF were seeded into T25 culture flasks in DMEM complete medium and maintained in culture for 72 h to reach ⁓80% confluency. HFF monolayers were left either non-infected or were infected with 2 × 10^5 T. gondii Me49 tachyzoites. After another 48 h, the medium was removed from infected and non-infected T25 flasks and was replaced either by medium containing 0.5 μM RU-SDX, or in the case of non-treated controls, medium containing 0.05% DMSO. As positive controls, the two mitochondrial uncouplers FCCP and CCCP were applied at a concentration of 80 and 50 μM, respectively. PYR was applied at 0.5 μM as a control drug not affecting the MMP, and RU-adenine, used as a conjugate shown earlier to impact on the mitochondrial ultrastructure in T. gondii ([Anghel et al., 2021]; [Desiatkina et al., 2022b]), was also tested at 0.5 μM ([Anghel et al., 2021]; [Desiatkina et al., 2022b]). […] Fluorescence was measured using a Hidex Sense microplate reader instrument ([…]) with the excitation wavelength 544/20 nm and emitted light collected at 590/20 nm. Value from wells belonging to the same experimental condition were summed and the mean TMRE uptake in each condition was calculated from three biological replicates.

[2] = test system: T. gondii Me49 tachyzoites; assay: Transmission electron microscopy of treated tachyzoites in HFF; assay type: cell-based, Toxoplasma gondii; conditions: 0.5 μM, 6 h of treatment
Method: We examined the cellular ultrastructure of T. gondii tachyzoites treated with RU-SDX by TEM as described previously ([Anghel et al., 2021]; [Desiatkina et al., 2020]). Briefly, confluent HFF grown in T25 flasks were infected with 10^5 T. gondii Me49 tachyzoites, and infected cultures were maintained for 24 h at 37 °C/5% CO2. Subsequently, the medium was removed and medium containing 0.5 μM RU-SDX or 0.05% DMSO (as solvent control) was added, and cultures were maintained at 37 °C/5% CO2 during 6, 24 or 48 h. At the different timepoints the samples were fixed and processed for TEM ([Anghel et al., 2021]; [Desiatkina et al., 2020]). For this, cultures were washed with 0.1 M sodium cacodylate buffer (pH 7.3) and fixed in 2% glutaraldehyde in cacodylate buffer for 10 min at room temperature (RT). The fixed infected monolayers were gently scraped from the flasks, transferred into Eppendorf tubes, washed with in ice-cold 0.1 M sodium cacodylate buffer and fixed in 2% glutaraldehyde in cacodylate buffer for 2 h at RT. Further preparation steps included post-fixation in 2% osmium tetroxide, pre-staining, stepwise dehydration in ethanol, and embedding in Epon-812 resin. In some instances, T25 flasks containing HFF monolayers infected with T. gondii Me49 tachyzoites were treated with FCCP and CCCP for 10 min at 80 and 50 μM, respectively, and samples were prepared for TEM as described above. […]

[3] = test system: T. gondii β-gal tachyzoites; conditions: cited from earlier work

Q: Which results are given for CC(C)(C)c1ccc(C[S-])cc1.CC(C)(C)c1ccc(C[S-])cc1.COc1ncnc(NS(=O)(=O)c2ccc(NC(=O)Cc3ccc([S-])cc3)cc2)c1OC.Cc1ccc(C(C)C)cc1.Cc1ccc(C(C)C)cc1.[Cl-].[Ru+2].[Ru+2] [RU-SDX]?
A: viability (% of control ± SD) (HFF; 2.5 μM): 79 ± 4%; viability (% of control ± SD) (HFF; 5 μM): 64 ± 4%; viability (% of control ± SD) (HFF; 10 μM): 31 ± 9%; survival score (surviving embryos without malformations) ([1]; 0.2 μM): 95%; Malformations (No. embryos with malformations / fertilized embryos) ([1]; 0.2 μM): 0/20; Mortality (No. of dead embryos / fertilized embryos) ([1]; 0.2 μM): 1/20; Unaffected embryos (No. / fertilized embryos) ([1]; 0.2 μM): 19/20; survival score (surviving embryos without malformations) ([1]; 2 μM): 90%; Malformations (No. embryos with malformations / fertilized embryos) ([1]; 2 μM): 1/20; Mortality (No. of dead embryos / fertilized embryos) ([1]; 2 μM): 1/20; Unaffected embryos (No. / fertilized embryos) ([1]; 2 μM): 18/20; survival score (surviving embryos without malformations) ([1]; 20 μM): no surviving embryos; Malformations (No. embryos with malformations / fertilized embryos) ([1]; 20 μM): 0/20; Mortality (No. of dead embryos / fertilized embryos) ([1]; 20 μM): 20/20; Unaffected embryos (No. / fertilized embryos) ([1]; 20 μM): 0/20; time of peak of mortality of zebrafish embryos ([1]; 20 μM, h of embryogenesis): 72 h; TMRE fluorescence intensity / TMRE uptake (percentage of non-treated control = 100%) (Non-infected HFF): 140%; ultrastructural changes in tachyzoites (TEM) [2]: mitochondrial matrix appeared to have lost its characteristic electron dense texture in many areas; proliferation (% of control ± SD) ([3]; 1 μM, ref Desiatkina et al., 2021): ^b^, ^∗∗∗11 ± 1%; proliferation (% of control ± SD) ([3]; 1.1 μM, ref Desiatkina et al., 2021): ^b^,*116 ± 1%; proliferation (% of control ± SD) ([3]; 1.25 μM, ref Desiatkina et al., 2021, Păunescu et al.): ^b^, ^a0 ± 0%
